Experimental data reported in paper PMC13081163, “Discovery of a novel Nrf2 activator that modulates mitochondrial function in neurons by regulating DHRS3-Nrf2 interaction after ischemic stroke” (Theranostics, 2026).

How the values were obtained:
[1] = Metabolite identification in human liver microsomes; type: in vitro ADME
Description: In vitro identification of metabolites was performed by incubating Cpd.51 (parent compound, final concentration 10 µM) with human liver microsomes (final protein concentration, 1 mg/mL) at 37 °C in a 100 mM potassium phosphate buffer containing 5 mM MgCl2. Samples were quenched with methanol and analyzed using a Waters G2-XS Q-Tof UPLC-MS system employing positive-ion and negative-ion electrospray ionization. The LC-MS extract ion chromatograms to identify the major putative metabolites. MS/MS spectra of Cpd.51 and its metabolites were acquired during both positive-ion and negative-ion electrospray. The potential chemical structures of the metabolites were inferred from their MS/MS spectra and retention times. Metabolic pathways of Cpd.51 in human liver microsomes were subsequently proposed. […]
The objective of this study is to identify major metabolites of Cpd.51 generated in human […]
In vitro metabolites identification was conducted after incubating Cpd.51 (parent compound, final concentration 10 µM) with human liver microsomes (final protein concentration, 1 mg/mL) at 37 °C in 100 mM potassium phosphate buffer containing 5 mM MgCl2 in the presence of NADPH or without NADPH. The samples taken at 0 minute (min) and 5 min were quenched by methanol and analyzed using Waters G2-XS Q-Tof UPLC-MS system with positive-ion and negative-ion electrospray ionization. […]

[2] = biological target: Nrf2 (Homo sapiens, UniProt Q14145); assay: Nrf2 nuclear translocation by immunofluorescence; type: cell-based; details: 100 nM, SH-SY5Y cells and primary cortical neurons
Nrf2, sequence (Q14145 whole entry): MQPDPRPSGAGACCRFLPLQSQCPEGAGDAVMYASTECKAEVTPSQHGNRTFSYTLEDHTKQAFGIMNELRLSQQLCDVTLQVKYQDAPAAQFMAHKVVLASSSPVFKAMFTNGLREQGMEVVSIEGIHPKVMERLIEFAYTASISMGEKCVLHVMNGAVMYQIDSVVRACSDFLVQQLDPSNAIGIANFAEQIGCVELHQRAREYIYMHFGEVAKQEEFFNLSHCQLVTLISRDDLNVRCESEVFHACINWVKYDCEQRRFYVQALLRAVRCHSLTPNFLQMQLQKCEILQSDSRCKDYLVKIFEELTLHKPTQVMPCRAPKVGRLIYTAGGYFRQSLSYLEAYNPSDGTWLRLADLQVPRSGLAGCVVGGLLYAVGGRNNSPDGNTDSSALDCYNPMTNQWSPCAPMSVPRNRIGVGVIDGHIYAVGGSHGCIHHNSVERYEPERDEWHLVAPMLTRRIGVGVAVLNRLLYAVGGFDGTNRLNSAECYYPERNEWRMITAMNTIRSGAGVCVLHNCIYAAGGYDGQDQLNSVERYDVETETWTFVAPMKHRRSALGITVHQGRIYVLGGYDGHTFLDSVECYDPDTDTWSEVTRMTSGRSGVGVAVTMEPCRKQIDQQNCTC
Nrf2, sequence (Q16236 whole entry, further chain): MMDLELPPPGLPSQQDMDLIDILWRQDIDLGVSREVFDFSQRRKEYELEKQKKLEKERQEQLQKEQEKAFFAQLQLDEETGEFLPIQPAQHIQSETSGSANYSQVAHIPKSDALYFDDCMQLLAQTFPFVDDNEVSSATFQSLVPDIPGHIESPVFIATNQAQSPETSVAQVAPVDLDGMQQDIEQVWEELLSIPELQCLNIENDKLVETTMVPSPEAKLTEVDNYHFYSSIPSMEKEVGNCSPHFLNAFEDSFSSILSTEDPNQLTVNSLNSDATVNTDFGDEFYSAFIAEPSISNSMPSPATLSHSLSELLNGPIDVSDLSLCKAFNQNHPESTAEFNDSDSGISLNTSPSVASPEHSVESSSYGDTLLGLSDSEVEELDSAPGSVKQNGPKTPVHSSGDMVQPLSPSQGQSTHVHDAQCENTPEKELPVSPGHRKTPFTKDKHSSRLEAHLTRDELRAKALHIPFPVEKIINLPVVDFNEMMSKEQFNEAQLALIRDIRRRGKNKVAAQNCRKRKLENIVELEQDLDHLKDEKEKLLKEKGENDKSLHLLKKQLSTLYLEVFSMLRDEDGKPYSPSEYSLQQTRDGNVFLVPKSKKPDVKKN
Description: Immunostaining: cells were fixed with 4% paraformaldehyde for 20 min and then incubated with blocking solution (10% normal goat serum, 0.5% Triton X-100 in PBS) for 1 h at room temperature. Then, the samples were incubated overnight with primary antibodies: anti-Nrf2 (1:200, CST), anti-DHRS3 (1:300, Proteintech), anti-NeuN (1:500, Servicebio). When evaluating the extraction efficiency of primary cortical neurons, we performed co-staining with β-tubulin (1:200, Abcam) and Synaptophysin (1:300, ABclonal). After being washed with PBST three times, the samples were incubated with the corresponding secondary antibodies for 2 h in the dark. The nuclei were stained with DAPI (C1006-200mL, Beyotime, China) for 20 min. Finally, images were captured with a fluorescence microscope. Fluorescence integrated density was measured by ImageJ as previously described.

[3] = biological target: T1, DHRS3-Nrf2 interaction (Homo sapiens, UniProt O75911); assay: GST pull-down of Nrf2 and DHRS3; type: binding; details: 100 nM, purified GST-tagged Nrf2 and DHRS3 proteins
T1 construct: purchased Ybio YB710012 (GST-Nrf2); YB765100 (DHRS3)
T1 sequence (O75911 1-302): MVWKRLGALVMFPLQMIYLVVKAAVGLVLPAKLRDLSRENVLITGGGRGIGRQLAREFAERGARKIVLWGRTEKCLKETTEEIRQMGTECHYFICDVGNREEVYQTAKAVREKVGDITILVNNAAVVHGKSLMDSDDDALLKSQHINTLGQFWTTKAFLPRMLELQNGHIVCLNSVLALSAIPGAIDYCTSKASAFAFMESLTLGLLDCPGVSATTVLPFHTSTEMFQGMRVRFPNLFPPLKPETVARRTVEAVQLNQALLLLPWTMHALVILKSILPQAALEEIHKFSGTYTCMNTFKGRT
Description: GST-Nrf2 (YB710012, Ybio, China) or GST (Ag0040, Proteintech, China, as control) proteins were mixed with GST Resin (EA-IP-K008, Elabscience Biotechnology, China) for 2 h incubation on the shaker at 4 °C. Subsequently, both Cpd.51 (100 nM) and DHRS3 (YB765100, Ybio, China) were added to the mixture and rotated overnight at 4 °C [40]. Then, following the instructions, the sample buffer was added and heated to 100 °C for 10 min. After completing all steps, the mixture was centrifuged, and the supernatant was collected for western blotting analysis.

CC1(C)CCC2(C(=O)NO)CCC3(C)C(C(=O)C=C4C5(C)C=C(C#N)C(=O)C(C)(C)C5CCC43C)C2C1 (stereo not shown) [Cpd.51]
number of major metabolites ([1]; human liver microsomes): 10
Relative UV abundance (5 min), relative to parent in T0 sample ([1]; human liver microsomes with NADPH, 10 µM Cpd.51, 5 min, UV 250-260 nm): 54.06%
Nrf2 nuclear translocation [2]: Nrf2 nuclear translocation within 15 min
direct DHRS3-Nrf2 binding (GST pull-down) [3]: significantly reduced
